Entries after “also recorded” stand apart in the source; their conditions may differ.
What was measured:
[1] = system: probiotic Lactobacillus spp; assay: Growth of probiotic Lactobacillus strains; details: three Lactobacillus strains
[2] = system: AIEC in murine macrophage J774A.1 cells; assay: Uptake and survival of AIEC in J774A.1 macrophages; assay type: cell-based, E. coli
Salmonella [3] = assay: Adhesion and invasion of colonic epithelial cells by Salmonella; assay type: cell-based
Listeria monocytogenes = assay: Bacterial growth panel, Listeria; assay type: cell-based
Experimental: (§1) The control sample contained 40 mM NaCl.
Growth of bacteria with or without addition of C2-C8 C10, and C12 alkyl boronic acids, BA, or FMPBA was monitored by readings at OD600. […] The area under the curve (“AUC”) of the growth curve was calculated and the results were expressed as AUC+test compound:AUC−test compound.

[4] = system: adherent invasive E. coli (AIEC, 541-1); assay: Growth in M9 media with ethanolamine or NH4Cl; details: BA, EBA 10-40 mM, PBA 15 mM, MBA 30 mM
Salmonella [5] = assay: Growth of five Salmonella strains; assay type: cell-based
Experimental: as §1

[6] = system: enteric pathogens (E. coli, Salmonella, Listeria monocytogenes, Klebsiella); assay: Bacterial growth panel, OD600 growth-curve AUC ratio (heat map); assay type: cell-based
[7] = system: cancer associated E. coli (HM288); assay: Growth in M9 media; details: EBA 10-40 mM
Feline Lung cells = assay: Cytotoxicity in FIPV infected Feline Lung cells
[8] = system: diarrheagenic E. coli and APEC; assay: Growth of diarrheagenic and APEC E. coli in LB media; assay type: cell-based; details: 30 mM
Experimental: as §1
Diarrheagenic E. coli pathogroups differ by their preferential host colonization sites, virulence mechanisms, and clinical symptoms.

[9] = system: AIEC E. coli from dogs (MDR and non-MDR strains); assay: Growth of MDR and non-MDR E. coli associated with Granulomatous colitis in dogs; assay type: cell-based; details: 40 mM, LB broth, 48 hrs
Experimental: The ability of C1-C3 alkyl boronic acids and BA to impact the growth of MDR E. coli isolated from people and dogs was evaluated using a temperature controlled 96-well multiplate incubator at 37° C. over 48 hrs. Growth in media (LB broth) with and without ABA C2-6 (40 mM) was monitored by readings at OD600 with the AUC of the growth curve calculated.
Non-MDR strains KD1, KD2, and KD3 were also evaluated.

Salmonella [10] = assay: Soft agar motility assay, Salmonella; assay type: cell-based; details: % motility of the control
Experimental: The ability of ABA C1-3 and BA to impact the motility of E. coli and Salmonella was evaluated using sloppy agar treated with and without BA and C1-C3 alkyl boronic acids. Motility is strongly linked to the virulence phenotype of these bacterial strains. E. coli was grown overnight at 37° C. in LB broth. Soft agar plates (1% tryptone, 0.5% NaCl, 0.25% agar) were prepared the day before the assay was carried out. Sterile NaCl (control), boric or boronic acid stock solution was added into the agar right before pouring the plates. The overnight cultures of E. coli were transferred (3 μl) on to the center of each plate, followed by incubation of the plates at 37° C. for 10 h. E. coli motility was quantified by measuring the diameter of the circular swarming area formed by the growing motile bacteria.

CCB(O)O [EBA, ethyl boronic acid]
growth of probiotic Lactobacillus spp [1]: do not suppress growth
survival of AIEC in J774A.1 macrophages ([2]; 30 mM during infection, 24 h post infection): inhibited the survival
uptake of AIEC by J774A.1 macrophages ([2]; 30 mM, 1 h): inhibited the uptake
suppression of adhesion and invasion of Salmonella (Salmonella [3]): 40-50%
selectivity of activity against Listeria monocytogenes (Listeria monocytogenes): selectivity apparent
inhibition of growth of AIEC 541-1 [4]: much more effective
inhibition of growth of Salmonella serovars (Salmonella [5]): inhibit the growth of multiple serovars of Salmonella more effectively than BA
antibacterial activity / potency against enteric pathogens (growth, AUC+test compound:AUC−test compound) ([6]; 40 mM (BA, EBA, PBA), 20 mM (BBA), 10 mM (PeBA), 5 mM (HBA, SBA), 1 mM (OBA), 0.5 mM (DBA), 2 mM (DoDBA), 20 mM (FMPBA), 24-48 hrs): higher potency against enteropathogens
selectivity for Gram Negative enteropathogens ([6]; growth panel): highest
inhibition of growth of cancer associated E. coli HM288 [7]: effective
cytotoxicity in antiviral assay (Feline Lung cells): Cytotoxicity was not observed at antiviral doses
inhibition of growth of diarrheagenic and APEC E. coli [8]: have activity versus the diarrheagenic E. coli and APEC that varies by pathogroup; also recorded: more effective in inhibiting bacterial growth than BA overall
degree of cytopathic effect (Caco-2 cells): EBA<BA<PBA
growth inhibition of canine Granulomatous colitis associated AIEC, MDR and non-MDR [9]: more effective than BA over a wider range of AIEC, including MDR and non-MDR strains
motility of Salmonella (Salmonella [10]): highly effective at blocking motility of Salmonella

From patent publication US12589103B2, “Antimicrobial and antiviral effects of C2-C7 alkyl boronic acids” (CORNELL UNIVERSITY, priority 2019, dated 2026)
